The record followed here is ChEMBL document CHEMBL1155024, “Microbial transformation of cinobufagin by Syncephalastrum racemosum” (J Nat Prod, 2008).

The test has as its system Bel-7402. The test is described as follows: Cytotoxicity against human Bel7402 cells by MTT assay. Format: functional, cell-based. For orientation: Tetrazolium assays rely on reduction of a dye to a coloured formazan, in cell work by metabolically active cells.
Consider `CC(=O)O[C@H]1[C@H]2O[C@]23[C@@H]2[C@@H](O)C[C@@H]4C[C@@H](O)CC[C@]4(C)[C@H]2CC[C@]3(C)[C@H]1c1ccc(=O)oc1`, for which inhibition was half-maximal at 540 nM (IC50).

Consider `CC(=O)O[C@H]1[C@H]2O[C@]23[C@@H]2CC[C@@H]4C[C@@H](O)CC[C@]4(C)[C@H]2CC[C@]3(C)[C@H]1c1ccc(=O)oc1` [CINOBUFAGIN], for which the IC50 – broadly, the point on the concentration scale where inhibition reaches its midpoint – was determined as 100 nM.

In turn, `CC(=O)O[C@H]1[C@H]2O[C@]23[C@@H]2CC[C@]4(O)C[C@@H](O)CC[C@]4(C)[C@H]2C[C@@H](O)[C@]3(C)[C@H]1c1ccc(=O)oc1` returned an IC50 of 660 nM.

As to `CC(=O)O[C@H]1[C@H]2O[C@]23[C@@H]2CC[C@]4(O)C[C@@H](O)CC[C@]4(C)[C@H]2CC[C@]3(C)[C@H]1c1ccc(=O)oc1` [CINOBUFOTALIN], the IC50 is 1210 nM.

As for `CC(=O)O[C@H]1[C@H]2O[C@]23[C@@H]2CC[C@@H]4C[C@@H](O)CC[C@]4(C)[C@H]2C[C@@H](O)[C@]3(C)[C@H]1c1ccc(=O)oc1`, 370 nM corresponded to half-maximal inhibition (IC50).
